Consider six molecules from ChEMBL document CHEMBL6083251, “"Pseudosubstrate Envelope"/Free Energy Perturbation-Guided Design and Mechanistic Investigations of Benzothiazole HIV Capsid Modulators with High Ligand Efficiency” (J Med Chem, 2024).

For orientation: EC50 means the concentration needed to bring the measured effect to its halfway point. What is called CC50 is the concentration giving 50% cytotoxicity. In general, half-life refers to the time needed for the level to fall by half in the phase considered. One may read the Kd as the constant that tells how readily two partners part at equilibrium.

The target in data set [1] is Human immunodeficiency virus type 1 reverse transcriptase (Human immunodeficiency virus 1) (UniProt Q72547). The following applies: dose 10.0 nM, time 1.0 hrs.
In data set [2] the test system is Human immunodeficiency virus 1. As to the kind of experiment: Anti-HIV activity against wild type HIV-1 IIIB infected in human MT4 cells assessed as protection against virus-induced cytopathic effect incubated for 5 days by spectrophotometric based MTT assay. The note with it: Human immunodeficiency virus 1, IIIB, MT4, 120 h. It is filed as functional, organism-based. In general terms: Protection from cytopathic effect is a common read-out in antiviral testing.

The subject of data set [3] is Human immunodeficiency virus 2. In words: Anti-HIV activity against HIV-2 ROD infected in human MT-4 cells assessed as protection against virus-induced cytopathic effect incubated for 5 days by spectrophotometric based MTT assay. It is filed as functional, organism-based. The following applies: Human immunodeficiency virus 2, ROD, MT4, 120 h.
Data set [4] has as its system MT4. As to the kind of experiment: Cytotoxicity against human MT4 cells assessed as reduction in cell viability incubated for 5 days by spectrophotometric based MTT assay. It is filed as functional. The following applies: MT4, 120 h, time 5 day.
The target of data set [5] is Structural capsid protein (Human immunodeficiency virus 1) (UniProt Q76129). As to the kind of experiment: Binding affinity to monomeric HIV-1 NL4.3 capsid protein assessed as dissociation rate (Koff) by SPR assay. The note with it: filed as modulator.
The target is the same in data set [6]. In words: Binding affinity to monomeric HIV-1 NL4.3 capsid protein assessed as residence time by SPR assay. The note with it: filed as modulator. In general terms: SPR reads the build-up and loss of mass on a sensor chip optically.
The target is the same in data set [7]. As to the kind of experiment: Binding affinity to hexameric HIV-1 NL4.3 capsid protein assessed as dissociation rate (Koff) by SPR assay. The note with it: filed as modulator.
Data set [8] has the same target. In words: Binding affinity to hexameric HIV-1 NL4.3 capsid protein assessed as residence time by SPR assay. The following applies: filed as modulator.
Data set [9] is described as follows: Metabolic stability in human liver microsomes assessed as half life at 1 uM incubated for 60 mins by LC-MS/MS analysis. It is filed as ADME, Microsome. Background: Liver microsomes are a subcellular fraction often used to study metabolism.
The nature of data set [10]: Metabolic stability in human liver microsomes assessed as intrinsic clearance at 1 uM incubated for 60 mins by LC-MS/MS analysis. It is filed as ADME, Microsome. The note with it: read-out: CLH.
Data set [11] has as its system Human immunodeficiency virus 1. As to the kind of experiment: Anti-HIV activity against HIV-1 IIIB infected in human MT4 cells assessed as protection against virus-induced cytopathic effect incubated for 5 days by spectrophotometric based MTT assay. The following applies: Human immunodeficiency virus 1, IIIB, MT4, 120 h.
Data set [12] in a line: Selectivity ratio of EC50 for wild type HIV-1 IIIB infected in human MT4 cells to EC50 for HIV-2 ROD infected in human MT-4 cells assessed as protection against virus-induced cytopathic effect incubated for 5 days by spectrophotometric based MTT assay. The following applies: time 5 day. It is filed as functional.
The nature of data set [13]: Selectivity index, ratio of CC50 for human MT4 cells to EC50 for wild type HIV-1 IIIB infected in human MT4 cells. It is filed as toxicity, cell-based. The following applies: read-out: Selectivity Index.
Data set [14] in a line: Selectivity index, ratio of CC50 for human MT4 cells to EC50 for HIV-2 ROD infected in human MT-4 cells. It is filed as toxicity, cell-based. The note with it: read-out: Selectivity Index.
In data set [15] the target is T1, Structural capsid protein (Human immunodeficiency virus 1, UniProt Q76129). As to the kind of experiment: Binding affinity to monomeric HIV-1 NL4.3 capsid protein assessed as dissociation constant by SPR assay.
Data set [16] addresses T1, Structural capsid protein. In words: Binding affinity to hexameric HIV-1 NL4.3 capsid protein assessed as dissociation constant by SPR assay.
Data set [17] concerns Human immunodeficiency virus 1. As to the kind of experiment: Antiviral activity against pseudotyped HIV-1 expressing luciferase-reporter transfected in HEK293T cells assessed as viral inhibition at early stage incubated for 48 hrs by Single-round infection assay. It is filed as functional, organism-based.
Data set [18] concerns the target Human immunodeficiency virus type 1 reverse transcriptase (Human immunodeficiency virus 1) (UniProt Q72547). As to the kind of experiment: Inhibition of HIV1 reverse transcriptase at 13 nM incubated for 1 hr by ELISA analysis.
Data set [19] addresses Structural capsid protein (Human immunodeficiency virus 1) (UniProt Q76129). In words: Binding affinity to HIV-1 hexameric capsid protein assessed as reduction in CPSF6 binding to capsid protein by competition assay based SPR analysis. The following applies: filed as modulator.
The target is the same in data set [20]. In words: Binding affinity to HIV-1 hexameric capsid protein assessed as reduction in NUP153 binding to capsid protein by competition assay based SPR analysis. The following applies: filed as modulator.
Data set [21] concerns Human immunodeficiency virus 1. As to the kind of experiment: Antiviral activity against pseudotyped HIV-1 expressing luciferase-reporter transfected in HEK293T cells assessed as viral inhibition at late stage incubated for 48 hrs by Single-round infection assay. It is filed as functional, organism-based.
The subject of data set [22] is Human immunodeficiency virus 1. In words: Antiviral activity against pseudotyped HIV-1 expressing luciferase-reporter transfected in HEK293T cells assessed as increase in p24 level in progeny virions by ELISA analysis. It is filed as functional, organism-based.
The target in data set [23] is Human immunodeficiency virus type 1 reverse transcriptase (Human immunodeficiency virus 1) (UniProt Q72547). As to the kind of experiment: Inhibition of HIV1 reverse transcriptase at 20 nM incubated for 1 hr by ELISA analysis.
For data set [24] the target is unchanged. As to the kind of experiment: Inhibition of HIV1 reverse transcriptase at 24 nM incubated for 1 hr by ELISA analysis.

Molecules are shown by their SMILES. The source made the active and inactive calls.

T1 sequence (Q76129 whole entry): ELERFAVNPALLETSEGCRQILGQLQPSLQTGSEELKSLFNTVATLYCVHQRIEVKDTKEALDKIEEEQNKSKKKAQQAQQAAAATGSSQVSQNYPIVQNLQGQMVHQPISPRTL
Sequence of Structural capsid protein (Human immunodeficiency virus 1) (Q76129 as listed by the source): as the sequence (Q76129 whole entry) above

Turning to `Cc1cc(/C=C/C#N)cc(C)c1Nc1ccnc(Nc2ccc(C#N)cc2)n1`, the inhibition entry in [1] is “Active”.
For the molecule `Cc1[nH]c2ccccc2c1CC(=O)N[C@@H](Cc1ccccc1)C(=O)N(C)c1ccccc1`, the concentration giving a half-maximal response (EC50) worked out at 1060 nM in data set [2], 2840 nM in [3] and 800 nM in [11]. Also, in data set [4], the CC50 is 134000 nM. Besides, the K in data set [5] was 2.21 10^-1/s; in data set [7] it was 4.48 10^-1/s. Also, the TIME in data set [6] came to 0.00125 h; in [8], 0.000617 h. The half-life at 1 µM in data set [9] was 0.7 min. The CLint scaled at 1 µM in data set [10] was 2110 mL/min/kg.
In the case of `CN(C(=O)[C@H](Cc1cc(F)cc(F)c1)NC(=O)Cc1c[nH]c2ccc([N+](=O)[O-])cc12)c1ccc2scnc2c1`, the results for the EC50 in data set [2] and in [3] were 6.37 nM and 129 nM, respectively. In data set [12], the “Ratio EC50” value was determined as 0.05. Besides, the selectivity ratio in data set [13] came out at 4460; in data set [14], 220. For the same molecule, the CC50 in data set [4] turned out to be 28400 nM. For the same molecule, the Kd in data set [15] came to 153 nM; in data set [16], 87.9 nM. Also, the outcome in data set [17], in data set [19], in data set [20], in data set [21] and in data set [22] was Active. Moreover, the inhibition entry in data set [18] is “inactive”.
Take `COc1ccc(N(C)C(=O)[C@H](Cc2ccccc2)NC(=O)CN2CCN(S(=O)(=O)c3ccc(N)cc3)CC2=O)cc1`: the EC50 in [3] turned out to be 13.6 nM. Further, the 50% cytotoxic concentration (CC50) in data set [4] worked out at 114000 nM. For the same molecule, the figures for the K in data set [5] and in [7] were 2.34 10^-1/s and 2.01 10^-2/s, respectively. For the same molecule, the TIME is 0.00118 h in data set [6] and 0.0138 h in data set [8]. Moreover, the CLint scaled at 1 µM in data set [10] was found to be 344 mL/min/kg.
In the case of `CN(C(=O)[C@H](Cc1cc(F)cc(F)c1)NC(=O)Cc1c[nH]c2cc(F)c(F)cc12)c1ccc2scnc2c1`, the EC50 in [2] came out at 9.81 nM; in data set [3], 204 nM. For the same molecule, the “Ratio EC50” value in data set [12] was determined as 0.05. The selectivity ratio in data set [13] was 2410; in [14], 116. In addition, the CC50 in data set [4] stood at 23600 nM. The Kd was 267 nM in data set [15] and 305 nM in data set [16]. For the same molecule, the outcome in data set [17], in data set [19], in data set [20], in [21] and in [22] was Active. Moreover, the inhibition entry in data set [23] was “inactive”.
As for `CN(C(=O)[C@H](Cc1cc(F)cc(F)c1)NC(=O)Cc1c[nH]c2ccc(N)cc12)c1ccc2scnc2c1`, the 50% effective concentration (EC50) amounted to 11.9 nM in data set [2] and 231 nM in data set [3]. Besides, the “Ratio EC50” value in data set [12] is given as 0.05. In addition, the selectivity ratio in data set [13] came to 16100; in data set [14] it was 831. The CC50 in [4] was 192000 nM. Further, the figures for the Kd in data set [15] and in data set [16] were 196 nM and 94.5 nM, respectively. Further, the result in data set [17], in data set [19], in data set [20] and in data set [21] was Active. The inhibition entry in data set [24] is “inactive”. Also, the result in data set [22] was inactive. Also, the half-life at 1 µM in [9] turned out to be 68.5 min. In data set [10], the CLint scaled at 1 µM is 20.2 mL/min/kg.
